Columns and labels:
[1] = In vitro release study, Automated Franz Diffusion Cell System, Higuchi model fit; assay type: physicochemical; conditions: 37° C., PBS pH7.4, 24 hours, regenerated cellulose membrane
Protocol: Four different samples were run in 6 diffusate chamber volume of 4 ml […] PBS solution at pH7.4, with 0.6362 cm^2 effective diffusion area, under 400 rpm stirring and circulation of water bath at 37±1° C. throughout the experiments. Approximately 500 mg of each sample was loaded on the regenerated cellulose membrane surface (5000 Da molecular weight cut-off) in the retentate compartment, which was pre-soaked overnight, to be evaluated for 24 hours. At predetermined intervals, samples were withdrawn to be determined spectrophotometrically for the drug content and replaced with fresh receiving medium. The calculations are done based on average of six measurements from six different retentate compartments.

[2] = log P of the compound used / encapsulated; cited from earlier work

Row | Structure (SMILES) | Slope (release rate, Higuchi Model) ([1]; In NLC (NLC-1, NLC-2, NLC-3)) | Slope (release rate, Higuchi Model) ([1]; In cream (C1, C2, C3)) | Slope (release rate, Higuchi Model) ([1]; In solution (A1, A2, A3)) | Log P [2]
1 | CN(C)c1ccc2cc3ccc(N(C)C)cc3nc2c1 [Acridine orange, acridine orange] | 0.43 | 4.12 | 19.15 | 
2 | O=S(=O)(O)c1cc2cc(S(=O)(=O)O)c(N=Nc3ccccc3[As](=O)(O)O)c(O)c2c(O)c1N=Nc1ccccc1[As](=O)(O)O [Arsenazo III, arsenazo III] | 8.93 | 11.48 | 19.25 | 0.49
